Calls of active or inactive are those of the source. The rule behind the calls is not given here.
Columns and labels:
Pyricularia grisea [1] = assay: microbe, parasite or virus in culture; format: functional; conditions: ATCC 64413, 120 h
Pyricularia grisea [2] = assay: microbe, parasite or virus in culture; format: functional; conditions: ATCC 64413, 120 h; remark: listed apart in the source
Pyricularia grisea [3] = assay: microbe, parasite or virus in culture; format: functional; conditions: ATCC 64413, 120 h; remark: listed apart in the source
Pyricularia grisea [4] = assay: microbe, parasite or virus in culture; format: functional; conditions: ATCC 64413, 120 h; remark: listed apart in the source
Pyricularia grisea [5] = assay: Antifungal activity against Magnaporthe grisea ATCC 64413 assessed as depigmentation of mycelium at 200 ug/ml; format: functional, organism-based
Oryza sativa [6] = assay: Toxicity in Oryza sativa (rice) assessed as seedling growth at 1 to 10 ug/ml after 10 days; format: organism-based; conditions: in vivo, 240 h
Pyricularia grisea [7] = assay: Antifungal activity against Magnaporthe grisea ATCC 64413 infected rice plant assessed as growth inhibition at 1 to 10 ug/ml after 5 days; format: functional, organism-based
Oryza sativa [8] = assay: Toxicity in Oryza sativa (rice) assessed as seedling growth at >10 ug/ml after 10 days; format: organism-based; conditions: in vivo, 240 h
Oryza sativa [9] = assay: Toxicity in Oryza sativa (rice) assessed as cell culture growth at 1 to 10 ug/ml after 10 days; format: organism-based; conditions: 240 h

Compound | inhibition at 200 µg/mL (Pyricularia grisea [1]) | inhibition at 50 µg/mL (Pyricularia grisea [2]) | inhibition at 100 µg/mL (Pyricularia grisea [3]) | inhibition at 10 µg/mL (Pyricularia grisea [4]) | Activity (Pyricularia grisea [5]) | Activity (Oryza sativa [6]) | Activity (Pyricularia grisea [7]) | Activity (Oryza sativa [8]) | Activity (Oryza sativa [9])
Cc1nn(-c2cccc([N+](=O)[O-])c2)c2nc(C(F)(F)F)[nH]c(=S)c12 | 95.9% | 61% | 78% | 32% |  |  |  |  | 
Cc1cc2nc(C(F)(F)F)sc(=O)n2n1 | 100% | 97.9% | 99.5% | 64.5% |  |  |  |  | 
Cc1nn(-c2ccccc2)c2nc(C(F)(F)F)[nH]c(=S)c12 | 58% | 37% | 55% | 23% |  |  |  |  | 
Cc1nn(-c2ccc(Cl)c(Cl)c2)c2nc(C(F)(F)F)[nH]c(=S)c12 | 100% | 91% | 100% | 52% |  |  |  |  | 
O=c1sc(-c2ccccc2)nc2ccnn12 | 75.1% | 70.2% | 73.1% | 67% |  |  |  |  | 
Cc1n[nH]c2nc(-c3ccccc3)sc(=S)c12 | 21% | 15% | 17% | 14% |  |  |  |  | 
Cc1cc2nc(-c3ccc(Br)cc3)sc(=O)n2n1 | 74% | 47% | 58% | 47% |  |  |  |  | 
Cc1nn(-c2cccc([N+](=O)[O-])c2)c2nc(C(F)(F)F)sc(=O)c12 | 81.1% | 39.6% | 54.4% | 21.9% |  |  |  |  | 
Cc1n[nH]c2nc(Cc3ccccc3)sc(=O)c12 | 80% | 57% | 77% | 30% |  |  |  |  | 
Cc1cc2nc(C(F)(F)F)sc(=S)n2n1 | 93.2% | 79.6% | 79.7% | 48.4% |  |  |  |  | 
Cc1cc2nc(-c3ccc(Cl)cc3)sc(=O)n2n1 | 66% | 62% | 66% | 17% |  |  |  |  | 
Cc1nn(C(C)(C)C)c2nc(C(F)(F)F)[nH]c(=S)c12 | 44% | 31% | 35% | 25% |  |  |  |  | 
Cc1nn(-c2cccc([N+](=O)[O-])c2)c2nc(C(F)(F)F)sc(=S)c12 | 100% | 89.1% | 91.7% | 71.2% |  |  |  |  | 
Cc1nn(-c2ccc(Cl)c(Cl)c2)c2nc(C(F)(F)F)sc(=S)c12 | 100% | 83.1% | 90.5% | 57.7% |  |  |  |  | 
Cc1nn(C(C)(C)C)c2nc(-c3ccccc3)sc(=O)c12 | 19% | 14% | 16% | 14% |  |  |  |  | 
Cc1nn(C(C)(C)C)c2nc(-c3ccccc3)sc(=S)c12 | 17% | 16% | 16% | 14% |  |  |  |  | 
Cc1n[nH]c2nc(Cc3ccccc3)sc(=S)c12 | 77% | 75% | 76% | 73% | Active |  |  |  | 
Cc1n[nH]c2nc(-c3ccccc3)sc(=O)c12 | 30% | 24% | 28% | 16% |  |  |  |  | 
O=c1sc(-c2ccccc2)nc2cc(-c3ccccc3)nn12 | 15% | 15% | 15% | 15% |  |  |  |  | 
Cc1nn(C(C)(C)C)c2nc(C(F)(F)F)sc(=S)c12 | 58.3% |  | 42.7% |  |  |  |  |  | 
Cc1cc2nc(-c3ccccc3)sc(=O)n2n1 | 100% | 100% | 100% | 92.4% |  | Non-toxic | Active | Toxic | Non-toxic
Cc1nn(-c2ccccc2)c2nc(C(F)(F)F)sc(=S)c12 | 43.8% |  | 29.6% |  |  |  |  |  | 
Cc1cccc2sc3nncn3c12 [TRICYCLAZOLE] | 94% | 23.5% | 61.5% | 0% |  |  |  |  | 

Reference: ChEMBL document CHEMBL3046192, “Development of new fungicides against Magnaporthe grisea: synthesis and biological activity of pyrazolo[3,4-d][1,3]thiazine, pyrazolo[1,5-c][1,3,5]thiadiazine, and pyrazolo[3,4-d]pyrimidine derivatives” (J Agric Food Chem, 2002)
